Measured values reported in patent US8771742B2, “Porous cellulose aggregate and molding composition thereof” (Asahi Kasei Chemicals Corporation, priority 2005, dated 2014).
Values belong to the compound of their own block, whether it stands above or below them.

Assays:
Type in all cases: physicochemical
[1] = Elution test of drug from cylindrical molded body (paddle, UV absorbance); conditions: ethenzamide; molded body 50 MPa; paddle 100 rpm, 900 mL Pharmacopeia I liquid
Method: Cellulose particles A were used. A commercially available ibuprofen (an active component indicated as being almost completely insoluble in water according to Japanese Pharmacopeia 14) was dissolved in polyethylene glycol (Macrogol 400 from Sanyo Kasei Co., Ltd.) at a proportion of 1:5, and then diluted by 10 with ethanol. This was added to the cellulose particles A to result in 10% by weight. The mixture was stirred in a die. A die (from KIKUSUI SEISAKUSHO LTD, made with SUS 2, 3) was filled with 0.2 g of the obtained powder, and a circular flat punch (from KIKUSUI SEISAKUSHO LTD, made with SUS 2, 3) with a diameter of 0.8 cm was used to apply compression until the pressure reached 100 MPa (PCM-1A (Commercial Name) from AIKOH ENGINEERING CO., LTD. was used with a compression rate of 1 cm/min). The cylindrical molded body was released after the target pressure was maintained for 10 seconds. Fluid component effusion on the surface of the molded body was observed, drug elution from the cylindrical molded body (elution tests were conducted with a JASCO Corporation ultraviolet absorption spectrometer at paddle speed 100 rpm and 900 mL of Pharmacopeia I liquid, in which fluid absorbance was measured and the elution rate was calculated 3 minutes after) and disintegration time of the cylindrical molded bodies was measured. […]

[2] = Repose angle (Sugihara type device); conditions: low fluidity component model without cellulose
Method: Using a Sugihara type repose angle measuring device (slit size: depth 10 mm×width 50 mm×height 140 mm, a protractor was placed at the position of 50 mm width), the dynamic self-fluidity was measured when cellulose powder was dropped to the slit at 3 g/minute using a quantitative feeder. The angle between the bottom of the device and the top layer of the cellulose powder is the repose angle.

[3] = Reactivity to a drug: aspirin decomposition rate after storage mixed with cellulose; conditions: 60° C., two weeks, closed vial
Method: (12) Reactivity to a Drug
Aspirin (Japanese Pharmacopeia crystalline aspirin was treated with a small grinder φ0.5 mm, with 1 pass treatment) and each cellulose sample was mixed at 5/5 (total 0.5 g) in dry conditions and then placed in a glass sample vial and mixed. The vial was stored in an oven (Made by Tabai Espec Corp. Perfect Oven (Commercial Name)) with the cap tightly closed (at 60° C.) for two weeks and then the decomposition rate was measured. Ferric (III) […] sulfate 12 hydrate 8 g was placed in a 100 ml measuring flask, mixed with pure water to bring the volume up to 100 ml to make a coloring test solution. 0.25 g of stored aspirin (total 0.5 g of the blended powder) was introduced to a 50 ml measuring flask, mixed with ethanol to bring the volume up to 50 ml and the mixture was shaken for 5 minutes. Thus obtained ethanol solution was filtered, the filtrate was transferred to a 100 ml measuring flask and ethanol was added to bring the volume up to 100 ml. One milliliter of this ethanol solution and 1 ml of the coloring test solution described above were introduced to a 50 ml measuring flask, mixed with pure water to bring the volume up to 50 ml and the absorption was measured at the wavelength of 532 nm using a UV absorption meter (made by JASCO Corporation). The decomposition rate was calculated from the following formula. […]

Elution rate after 1 hour [1]: 9%
SMILES: CCOc1ccccc1C(N)=O [Comparative Example 76, ethenzamide]

Repose angle Before the addition of cellulose [2]: 55 °
SMILES: CC(=O)Nc1ccc(O)cc1 [Component model C, Acetaminophen]

aspirin decomposition rate [3]: 15%
SMILES: CC(=O)Oc1ccccc1C(=O)O [aspirin, Aspirin]
